Measured values taken from patent US5807985A, “Oligopeptide compounds containing D-2-alkyltryptophan capable of promoting the release of growth hormone” (priority 1997, dated 1998).
pIC50: −log10 of the molar value. Where two headings read alike, the source gives them in different places. Peptide text beside a SMILES is read from it.

What was measured:
[1] = biological target: Human hypothalamus tissue; assay: Inhibition of 125I-Tyr-Ala-HEXARELIN binding to human hypothalamus tissue membranes; details: for pIC50: human hypothalamus tissue; for percent of inhibition of 125I-Tyr-Ala-HEXARELIN specifically bound / specific binding of 125I-Tyr-Ala-HEXARELIN/0.1 mg membrane protein: hypothalamus
Experimental: (§1) The peptides of Examples 3 and 6 were further studied for inhibition of ^125 I--Tyr--Ala--HEXARELIN binding to human tissue. HEXARELIN is His--D--Mrp--Ala--Trp--D--Phe--Lys--NH2 where Mrp is 2-methyltryptophan.
(§2) Tissue membranes (0.1 mg protein) obtained from the heart and hypothalamus of two different adult subjects were incubated in triplicate with a subsaturating concentration (34 pM, about 48,000 cpm, for heart tissue and 42 pM, about 60,000 cpm, for hypothalamus tissue) of ^125 I--Tyr--Ala--HEXARELIN for 40 min at 0° C. in the absence and in the presence of increasing concentrations of the indicated unlabelled peptides. The value in parentheses represents the percent of inhibition of ^125 1I--Tyr--Ala--HEXARELIN specifically bound.
(§3) The specific binding of ^125 I--Tyr--Ala--HEXARELIN/0.1 mg membrane protein is expressed as a percent of total radioactivity added.

[2] = test system: Human heart tissue; assay: Inhibition of 125I-Tyr-Ala-HEXARELIN binding to human heart tissue membranes; details: for percent of inhibition of 125I-Tyr-Ala-HEXARELIN specifically bound / specific binding of 125I-Tyr-Ala-HEXARELIN/0.1 mg membrane protein: heart; for pIC50: human heart tissue
Experimental: as §1, §2, §3

[3] = mean of subjects 1 and 2, read-out: mean IC50 value
[4] = subject 1, read-out: IC50 value
[5] = subject 2, read-out: IC50 value

## Cc1[nH]c2ccccc2c1C[C@@H](NC(=O)[C@@H](N)Cc1cnc[nH]1)C(=O)N[C@@H](C)C(=O)N[C@@H](Cc1c[nH]c2ccccc12)C(=O)N[C@H](Cc1ccccc1)C(=O)N[C@@H](CCCCN)C(N)=O [HEXARELIN, His--D--Mrp--Ala--Trp--D--Phe--Lys--NH2] (HELM PEPTIDE1{H.[Cc1[nH]c2ccccc2c1C[C@@H](N[*:1])C(=O)[*:2]].A.W.[dF].K.[am]}$$$$V2.0)
[1]; [3]
  pIC50: 8.15
[1]; [4]
  pIC50: 8.05
[1]; [5]
  pIC50: 8.30
[1]; 0.1 nM peptide, subject 1
  percent of inhibition of 125I-Tyr-Ala-HEXARELIN specifically bound: 3%
  specific binding of 125I-Tyr-Ala-HEXARELIN/0.1 mg membrane protein: 10.7% of total radioactivity
[1]; 0.1 nM peptide, subject 2
  percent of inhibition of 125I-Tyr-Ala-HEXARELIN specifically bound: 4%
  specific binding of 125I-Tyr-Ala-HEXARELIN/0.1 mg membrane protein: 9.1% of total radioactivity
[1]; 1 nM peptide, subject 1
  percent of inhibition of 125I-Tyr-Ala-HEXARELIN specifically bound: 16%
  specific binding of 125I-Tyr-Ala-HEXARELIN/0.1 mg membrane protein: 9.6% of total radioactivity
[1]; 1 nM peptide, subject 2
  percent of inhibition of 125I-Tyr-Ala-HEXARELIN specifically bound: 19%
  specific binding of 125I-Tyr-Ala-HEXARELIN/0.1 mg membrane protein: 7.7% of total radioactivity
[1]; 10 nM peptide, subject 1
  percent of inhibition of 125I-Tyr-Ala-HEXARELIN specifically bound: 51%
  specific binding of 125I-Tyr-Ala-HEXARELIN/0.1 mg membrane protein: 5.2% of total radioactivity
[1]; 10 nM peptide, subject 2
  percent of inhibition of 125I-Tyr-Ala-HEXARELIN specifically bound: 67%
  specific binding of 125I-Tyr-Ala-HEXARELIN/0.1 mg membrane protein: 3.1% of total radioactivity
[1]; 100 nM peptide, subject 1
  percent of inhibition of 125I-Tyr-Ala-HEXARELIN specifically bound: 89%
  specific binding of 125I-Tyr-Ala-HEXARELIN/0.1 mg membrane protein: 1.2% of total radioactivity
[1]; 100 nM peptide, subject 2
  percent of inhibition of 125I-Tyr-Ala-HEXARELIN specifically bound: 93%
  specific binding of 125I-Tyr-Ala-HEXARELIN/0.1 mg membrane protein: 0.7% of total radioactivity
[1]; 1000 nM peptide, subject 1
  percent of inhibition of 125I-Tyr-Ala-HEXARELIN specifically bound: 100%
  specific binding of 125I-Tyr-Ala-HEXARELIN/0.1 mg membrane protein: 0% of total radioactivity
[1]; 1000 nM peptide, subject 2
  percent of inhibition of 125I-Tyr-Ala-HEXARELIN specifically bound: 100%
  specific binding of 125I-Tyr-Ala-HEXARELIN/0.1 mg membrane protein: 0% of total radioactivity
[2]; 0.1 nM peptide, subject 1
  percent of inhibition of 125I-Tyr-Ala-HEXARELIN specifically bound: 4%
  specific binding of 125I-Tyr-Ala-HEXARELIN/0.1 mg membrane protein: 20.1% of total radioactivity
[2]; 0.1 nM peptide, subject 2
  percent of inhibition of 125I-Tyr-Ala-HEXARELIN specifically bound: 5%
  specific binding of 125I-Tyr-Ala-HEXARELIN/0.1 mg membrane protein: 22.8% of total radioactivity
[2]; 1 nM peptide, subject 1
  percent of inhibition of 125I-Tyr-Ala-HEXARELIN specifically bound: 20%
  specific binding of 125I-Tyr-Ala-HEXARELIN/0.1 mg membrane protein: 16.9% of total radioactivity
[2]; 1 nM peptide, subject 2
  percent of inhibition of 125I-Tyr-Ala-HEXARELIN specifically bound: 28%
  specific binding of 125I-Tyr-Ala-HEXARELIN/0.1 mg membrane protein: 17.3% of total radioactivity
[2]; 10 nM peptide, subject 1
  percent of inhibition of 125I-Tyr-Ala-HEXARELIN specifically bound: 51%
  specific binding of 125I-Tyr-Ala-HEXARELIN/0.1 mg membrane protein: 10.4% of total radioactivity
[2]; 10 nM peptide, subject 2
  percent of inhibition of 125I-Tyr-Ala-HEXARELIN specifically bound: 56%
  specific binding of 125I-Tyr-Ala-HEXARELIN/0.1 mg membrane protein: 10.5% of total radioactivity
[2]; 100 nM peptide, subject 1
  percent of inhibition of 125I-Tyr-Ala-HEXARELIN specifically bound: 92%
  specific binding of 125I-Tyr-Ala-HEXARELIN/0.1 mg membrane protein: 1.7% of total radioactivity
[2]; 100 nM peptide, subject 2
  percent of inhibition of 125I-Tyr-Ala-HEXARELIN specifically bound: 90%
  specific binding of 125I-Tyr-Ala-HEXARELIN/0.1 mg membrane protein: 2.4% of total radioactivity
[2]; 1000 nM peptide, subject 1
  percent of inhibition of 125I-Tyr-Ala-HEXARELIN specifically bound: 100%
  specific binding of 125I-Tyr-Ala-HEXARELIN/0.1 mg membrane protein: 0% of total radioactivity
[2]; 1000 nM peptide, subject 2
  percent of inhibition of 125I-Tyr-Ala-HEXARELIN specifically bound: 100%
  specific binding of 125I-Tyr-Ala-HEXARELIN/0.1 mg membrane protein: 0% of total radioactivity
[2]; [3]
  pIC50: 8.02
[2]; [4]
  pIC50: 7.97
[2]; [5]
  pIC50: 8.08
